Patent US6358885B1, “Substituted phenylheterocyclic herbicides” (Mississippi State University, priority 1992, dated 2002)

Assays:
lambsquarters = assay: Test B preemergence/postemergence greenhouse plant response rating 0 to 10; format: in vivo, Chenopodium album; conditions: 0 to 10 scale
Method in brief: (§1)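 Test chemicals, dissolved in a non-phytotoxic solvent, were applied to soil at planting and, at the same time, over foliage of seedlings at the one to four leaf stage.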

rice = assay: as above; format: in vivo, Oryza sativa; conditions: 0 to 10 scale
Method in brief: as §1

soybean = assay: as above; format: in vivo, Glycine max; conditions: 0 to 10 scale
Method in brief: as §1

wheat = assay: as above; format: in vivo, Triticum aestivum; conditions: 0 to 10 scale
Method in brief: as §1

wild buckwheat [1] = assay: as above; format: in vivo, Polygonum convolvulus; conditions: 0 to 10 scale
Method in brief: as §1

wild oat = assay: as above; format: in vivo, Avena fatua; conditions: 0 to 10 scale
Method in brief: as §1

blackgrass = assay: Test C preemergence/postemergence greenhouse plant response rating 0 to 100; format: in vivo, Alopecurus myosuroides; conditions: POSTEMERGENCE; for Plant response rating, Blackgrass: 0 to 100 scale
Method in brief: (§2)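 Compounds in non-phytotoxic solvent went onto sandy loam before emergence (seeded one day earlier) or onto plants at the one-to-four leaf stage. Duck salad was treated via flood water (~2.5 cm, maintained) over silt loam.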

downy brome = assay: as above; format: in vivo, Bromus tectorum; conditions: POSTEMERGENCE; for Plant response rating Downy Brome: 0 to 100 scale
Method in brief: as §2

sorghum = assay: as above; format: in vivo, Sorghum bicolor; conditions: POSTEMERGENCE; for Plant response rating, Sorghum: 0 to 100 scale
Method in brief: as §2

sugar beet = assay: as above; format: in vivo, Beta vulgaris; conditions: POSTEMERGENCE; for Plant response rating, Sugar beet: 0 to 100 scale
Method in brief: as §2

wild buckwheat [2] = assay: as above; format: in vivo, Polygonum convolvulus; conditions: POSTEMERGENCE; for Plant response rating, Wild buckwheat: 0 to 100 scale
Method in brief: as §2

barnyardgrass = assay: Test C flood test plant response rating 0 to 100; format: in vivo, Echinochloa crus-galli; conditions: for Plant response rating, Barnyardgrass: flood test species listed under POSTEMERGENCE, 0 to 100 scale
Method in brief: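 Compounds in non-phytotoxic solvent applied preemergence to sandy loam one day after planting, postemergence at the 1–4 leaf stage, or to ~2.5 cm floodwater over silt loam.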

## COC(=O)c1cc(-c2nn3c(c2Cl)CCCC3)c(F)cc1Cl [Compound 43]
lambsquarters; POSTEMERGENCE, Rate 50 g/ha
  Plant response rating, Lambsquarter: 8
lambsquarters; PREEMERGENCE, Rate 50 g/ha
  Plant response rating, Lambsquarter: 9
lambsquarters; Rate 200 g/ha, POSTEMERGENCE
  Plant response rating, Lambsquarter: 10
lambsquarters; Rate 200 g/ha, PREEMERGENCE
  Plant response rating, Lambsquarter: 10
rice; POSTEMERGENCE, Rate 50 g/ha
  Plant response rating, Rice: 7
rice; PREEMERGENCE, Rate 50 g/ha
  Plant response rating, Rice: 1
rice; Rate 200 g/ha, POSTEMERGENCE
  Plant response rating, Rice: 9
rice; Rate 200 g/ha, PREEMERGENCE
  Plant response rating, Rice: 2
soybean; POSTEMERGENCE, Rate 50 g/ha
  Plant response rating, Soybean: 8
soybean; PREEMERGENCE, Rate 50 g/ha
  Plant response rating, Soybean: 4
soybean; Rate 200 g/ha, POSTEMERGENCE
  Plant response rating, Soybean: 9
soybean; Rate 200 g/ha, PREEMERGENCE
  Plant response rating, Soybean: 3
wheat; POSTEMERGENCE, Rate 50 g/ha
  Plant response rating, Wheat: 3
wheat; PREEMERGENCE, Rate 50 g/ha
  Plant response rating, Wheat: 0
wheat; Rate 200 g/ha, POSTEMERGENCE
  Plant response rating, Wheat: 8
wheat; Rate 200 g/ha, PREEMERGENCE
  Plant response rating, Wheat: 2
Wild buckwheat [1]; POSTEMERGENCE, Rate 50 g/ha
  Plant response rating, Wild buckwheat: 10
Wild buckwheat [1]; PREEMERGENCE, Rate 50 g/ha
  Plant response rating, Wild buckwheat: 8
Wild buckwheat [1]; Rate 200 g/ha, POSTEMERGENCE
  Plant response rating, Wild buckwheat: 10
Wild buckwheat [1]; Rate 200 g/ha, PREEMERGENCE
  Plant response rating, Wild buckwheat: 10
Wild oat; POSTEMERGENCE, Rate 50 g/ha
  Plant response rating, Wild oat: 5
Wild oat; PREEMERGENCE, Rate 50 g/ha
  Plant response rating, Wild oat: 2
Wild oat; Rate 200 g/ha, POSTEMERGENCE
  Plant response rating, Wild oat: 7
blackgrass; 62 g/ha
  Plant response rating, Blackgrass: 60
blackgrass; 250 g/ha
  Plant response rating, Blackgrass: 90
blackgrass; Rate 4 g/ha
  Plant response rating (0 to 100), Blackgrass: 20
blackgrass; Rate 16 g/ha
  Plant response rating (0 to 100), Blackgrass: 30
Downy brome; 62 g/ha
  Plant response rating Downy Brome: 50
Downy brome; 250 g/ha
  Plant response rating Downy Brome: 80
Downy brome; Rate 4 g/ha
  Plant response rating (0 to 100), Downy Brome: 30
Downy brome; Rate 16 g/ha
  Plant response rating (0 to 100), Downy Brome: 40
sorghum; 62 g/ha
  Plant response rating, Sorghum: 100
sorghum; 250 g/ha
  Plant response rating, Sorghum: 100
sorghum; Rate 4 g/ha
  Plant response rating (0 to 100), Sorghum: 40
sorghum; Rate 16 g/ha
  Plant response rating (0 to 100), Sorghum: 60
Sugar beet; 62 g/ha
  Plant response rating, Sugar beet: 60
Sugar beet; 250 g/ha
  Plant response rating, Sugar beet: 80
Sugar beet; Rate 4 g/ha
  Plant response rating (0 to 100), Sugar beet: 30
Sugar beet; Rate 16 g/ha
  Plant response rating (0 to 100), Sugar beet: 40
Wild buckwheat [2]; 62 g/ha
  Plant response rating, Wild buckwheat: 100
Wild buckwheat [2]; 250 g/ha
  Plant response rating, Wild buckwheat: 100
Wild buckwheat [2]; Rate 4 g/ha
  Plant response rating (0 to 100), Wild buckwheat: 60
Wild buckwheat [2]; Rate 16 g/ha
  Plant response rating (0 to 100), Wild buckwheat: 100
barnyardgrass; POSTEMERGENCE section, flood test, Rate 4 g/ha
  Plant response rating (0 to 100), Barnyardgrass: 45
barnyardgrass; Rate 16 g/ha, under POSTEMERGENCE head (flood test species)
  Plant response rating (0 to 100), Barnyardgrass: 95
barnyardgrass; 62 g/ha
  Plant response rating, Barnyardgrass: 100
barnyardgrass; 250 g/ha
  Plant response rating, Barnyardgrass: 100
